{"source": "patent US7147875B2", "about": "“Method and composition for relieving symptoms of arthritis and gout using fruit of miracles” (priority 2004, dated 2006)", "origin": "cited, not measured here", "data": [{"smiles": "COc1cc2c(c(OC)c1OC)-c1ccc(OC)c(=O)cc1[C@@H](NC(C)=O)CC2", "note": "[colchicine]", "values": [{"measurement": "Time until the pain is completely relieved", "setting": "from starting treatment", "result": 48, "unit": "h"}, {"measurement": "Time until the pain subsides", "setting": "from starting treatment", "result": "≤ 12", "unit": "h"}, {"measurement": "Reducing pain, swelling and inflammation associated with acute gout attacks", "setting": "in vivo", "result": "effective"}, {"measurement": "Uric acid levels in the bloodstream", "setting": "in vivo", "result": "does not decrease"}]}]}
